Article PMC4823954, “From fighting depression to conquering tumors: a novel tricyclic thiazepine compound as a tubulin polymerization inhibitor” (Cell Death & Disease, 2016)
Where two headings read alike, the source gives them in different places.

Assays:
FLT4 = target: T1, FLT4 (Homo sapiens, UniProt P35916); assay: KINOMEscan; format: binding; details: read-out: % Ctrl
T1 construct: purchased DiscoveRx KINOMEscan
How it was run: (§1)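 Competition binding panel of 442 non-mutant kinases: test compound at 5 and 10 μM competed with an active-site-directed ligand for 1 h with shaking. Bound kinase was eluted with 0.5 μM ligand and quantified by qPCR; %Ctrl = (compound − positive control)/(DMSO − positive control) × 100, lower meaning tighter binding.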

TRKC = target: T2, TRKC (Homo sapiens, UniProt Q16288); assay: KINOMEscan; format: binding; details: read-out: % Ctrl
T2 construct: purchased DiscoveRx KINOMEscan
T2 sequence (Q16288 32-839): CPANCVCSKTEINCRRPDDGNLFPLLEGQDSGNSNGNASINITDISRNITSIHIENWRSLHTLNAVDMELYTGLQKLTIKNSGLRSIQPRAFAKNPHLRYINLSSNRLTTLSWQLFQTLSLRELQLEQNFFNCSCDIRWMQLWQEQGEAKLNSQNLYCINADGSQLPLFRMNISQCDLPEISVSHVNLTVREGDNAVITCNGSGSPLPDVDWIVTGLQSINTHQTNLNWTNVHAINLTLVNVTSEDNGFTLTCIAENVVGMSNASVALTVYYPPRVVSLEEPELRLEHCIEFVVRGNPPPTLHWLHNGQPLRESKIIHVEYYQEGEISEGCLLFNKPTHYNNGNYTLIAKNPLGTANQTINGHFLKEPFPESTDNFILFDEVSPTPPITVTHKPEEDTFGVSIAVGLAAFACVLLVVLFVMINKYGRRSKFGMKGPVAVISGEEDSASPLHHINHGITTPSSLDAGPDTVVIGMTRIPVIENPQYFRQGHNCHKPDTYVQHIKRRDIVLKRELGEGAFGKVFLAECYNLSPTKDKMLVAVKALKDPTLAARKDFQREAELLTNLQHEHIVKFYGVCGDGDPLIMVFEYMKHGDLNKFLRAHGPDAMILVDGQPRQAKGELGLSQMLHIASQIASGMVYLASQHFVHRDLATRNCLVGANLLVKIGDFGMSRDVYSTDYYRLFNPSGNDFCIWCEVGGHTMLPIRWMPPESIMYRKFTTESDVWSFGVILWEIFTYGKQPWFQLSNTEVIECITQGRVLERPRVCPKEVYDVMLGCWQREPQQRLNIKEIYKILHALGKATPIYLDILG
How it was run: as §1

[1] = target: T3, ABL1(F317L)-nonphosphorylated (Homo sapiens, UniProt P00519, F317L); assay: KINOMEscan; format: binding; details: read-out: % Ctrl
T3 construct: purchased DiscoveRx KINOMEscan

MYO3B = target: T4, MYO3B (Homo sapiens, UniProt Q8WXR4); assay: KINOMEscan; format: binding; details: read-out: % Ctrl
T4 construct: purchased DiscoveRx KINOMEscan
How it was run: as §1

[2] = target: T5, ABL1(E255K)-phosphorylated (Homo sapiens, UniProt P00519, E255K); assay: KINOMEscan; format: binding; details: read-out: % Ctrl
T5 construct: purchased DiscoveRx KINOMEscan

[3] = target: T6, EGFR(L747-S752del, P753S) (Homo sapiens, UniProt P00533, DEL747-752/P753S); assay: KINOMEscan; format: binding; details: read-out: % Ctrl
T6 construct: purchased DiscoveRx KINOMEscan
T6 sequence (P00533 with tags, fused parts or gaps DEL747-752/P753S limits assumed): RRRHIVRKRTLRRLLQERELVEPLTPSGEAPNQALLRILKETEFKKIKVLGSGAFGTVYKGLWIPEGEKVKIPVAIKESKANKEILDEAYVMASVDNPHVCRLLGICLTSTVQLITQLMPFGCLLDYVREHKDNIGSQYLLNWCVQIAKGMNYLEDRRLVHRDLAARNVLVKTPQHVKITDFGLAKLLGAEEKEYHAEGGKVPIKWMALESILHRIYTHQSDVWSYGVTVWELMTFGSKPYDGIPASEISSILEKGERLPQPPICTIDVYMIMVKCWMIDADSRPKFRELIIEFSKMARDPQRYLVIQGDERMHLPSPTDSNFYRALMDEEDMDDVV

MET(M1250T) = target: T7, MET(M1250T) (Homo sapiens, UniProt P08581, M1250T); assay: KINOMEscan; format: binding; details: read-out: % Ctrl
T7 construct: purchased DiscoveRx KINOMEscan
T7 sequence (P08581 25-1390 M1250T): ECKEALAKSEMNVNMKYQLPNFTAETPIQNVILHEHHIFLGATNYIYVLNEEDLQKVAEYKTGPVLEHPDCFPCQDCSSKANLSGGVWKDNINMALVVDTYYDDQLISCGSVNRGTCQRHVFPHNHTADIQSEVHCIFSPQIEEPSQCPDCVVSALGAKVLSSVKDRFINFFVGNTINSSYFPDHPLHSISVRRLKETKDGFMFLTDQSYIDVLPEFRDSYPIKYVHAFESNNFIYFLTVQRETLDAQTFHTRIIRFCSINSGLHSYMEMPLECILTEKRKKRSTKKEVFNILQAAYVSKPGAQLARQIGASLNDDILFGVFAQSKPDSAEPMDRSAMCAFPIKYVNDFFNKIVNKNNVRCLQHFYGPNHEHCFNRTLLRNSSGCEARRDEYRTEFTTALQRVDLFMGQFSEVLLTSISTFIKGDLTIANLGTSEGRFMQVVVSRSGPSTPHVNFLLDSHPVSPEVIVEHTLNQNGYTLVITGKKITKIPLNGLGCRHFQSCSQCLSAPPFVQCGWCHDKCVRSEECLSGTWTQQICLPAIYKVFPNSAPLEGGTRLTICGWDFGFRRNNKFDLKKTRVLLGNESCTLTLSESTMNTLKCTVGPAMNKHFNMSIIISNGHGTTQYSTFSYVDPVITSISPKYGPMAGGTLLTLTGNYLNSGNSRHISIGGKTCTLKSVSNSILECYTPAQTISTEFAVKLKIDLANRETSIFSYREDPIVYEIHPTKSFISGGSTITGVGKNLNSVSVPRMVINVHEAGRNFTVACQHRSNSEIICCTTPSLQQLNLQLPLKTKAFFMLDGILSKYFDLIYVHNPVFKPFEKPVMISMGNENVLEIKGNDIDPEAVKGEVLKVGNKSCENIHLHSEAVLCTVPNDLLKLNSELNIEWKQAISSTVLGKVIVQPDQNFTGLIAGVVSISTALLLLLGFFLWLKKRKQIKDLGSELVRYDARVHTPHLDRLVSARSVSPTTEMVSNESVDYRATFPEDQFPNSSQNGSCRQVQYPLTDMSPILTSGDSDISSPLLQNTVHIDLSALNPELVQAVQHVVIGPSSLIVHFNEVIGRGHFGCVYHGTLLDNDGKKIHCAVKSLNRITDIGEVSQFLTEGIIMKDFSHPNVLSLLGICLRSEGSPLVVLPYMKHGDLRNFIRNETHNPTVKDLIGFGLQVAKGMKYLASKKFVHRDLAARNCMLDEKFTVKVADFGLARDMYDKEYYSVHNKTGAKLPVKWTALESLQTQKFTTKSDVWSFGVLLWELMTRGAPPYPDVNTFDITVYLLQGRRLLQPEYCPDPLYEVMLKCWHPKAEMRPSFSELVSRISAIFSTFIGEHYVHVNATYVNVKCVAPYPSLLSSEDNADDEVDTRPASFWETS

NHFB cells = assay: Cell cycle and apoptosis analysis; format: cell-based, human; details: 2 μM
caspases 8, 9 and 3/7 = assay: Caspases activity assay in H460 cells; format: cell-based, human; details: H460, 2 μM, 6, 12 and 24 h
Procedure: The activities of caspases 8, 9, and 3/7 in H460TaxR and H460 cells were examined via a fluorescence-based assay using Caspase-Glo 8, Caspase-Glo 9 Assay kits and Apo-ONE Homogeneous Caspase-3/7 Assay Kit (Promega, Madison, WI, USA). Cells (1 × 10^6 cells in 10 ml medium) were seeded in 10-cm dishes. After 24 h, the cells were treated with TBPT (2 μM) or DMSO for 6, 12 and 24 h. Then, the cells were washed in PBS and collected. Cell lysates were prepared conventionally in RIPA lysis buffer. Protein concentrations were determined using the BCA protein assay. Equal amounts (10 μg) of total protein of samples were added to 96-well culture plates containing 100 μl caspases 8, 9 and 3/7 activity working solution. After the samples were incubated for 1 h at RT, the fluorescence of each well was determined at 499 nm with an emission wavelength of 521 nm using a multimode plate reader (Victor X2, Perkin Elmer, Boston, MA, USA). The fluorescence intensities are proportional to the activities of caspases 8, 9 and 3/7.

[4] = target: T8, ABL1(H396P)-phosphorylated (Homo sapiens, UniProt P00519, H396P); assay: KINOMEscan; format: binding; details: read-out: % Ctrl
T8 construct: purchased DiscoveRx KINOMEscan

KIT(A829P) = target: T9, KIT(A829P) (Homo sapiens, UniProt P10721, A829P); assay: KINOMEscan; format: binding; details: read-out: % Ctrl
T9 construct: purchased DiscoveRx KINOMEscan
T9 sequence (P10721 26-976 A829P): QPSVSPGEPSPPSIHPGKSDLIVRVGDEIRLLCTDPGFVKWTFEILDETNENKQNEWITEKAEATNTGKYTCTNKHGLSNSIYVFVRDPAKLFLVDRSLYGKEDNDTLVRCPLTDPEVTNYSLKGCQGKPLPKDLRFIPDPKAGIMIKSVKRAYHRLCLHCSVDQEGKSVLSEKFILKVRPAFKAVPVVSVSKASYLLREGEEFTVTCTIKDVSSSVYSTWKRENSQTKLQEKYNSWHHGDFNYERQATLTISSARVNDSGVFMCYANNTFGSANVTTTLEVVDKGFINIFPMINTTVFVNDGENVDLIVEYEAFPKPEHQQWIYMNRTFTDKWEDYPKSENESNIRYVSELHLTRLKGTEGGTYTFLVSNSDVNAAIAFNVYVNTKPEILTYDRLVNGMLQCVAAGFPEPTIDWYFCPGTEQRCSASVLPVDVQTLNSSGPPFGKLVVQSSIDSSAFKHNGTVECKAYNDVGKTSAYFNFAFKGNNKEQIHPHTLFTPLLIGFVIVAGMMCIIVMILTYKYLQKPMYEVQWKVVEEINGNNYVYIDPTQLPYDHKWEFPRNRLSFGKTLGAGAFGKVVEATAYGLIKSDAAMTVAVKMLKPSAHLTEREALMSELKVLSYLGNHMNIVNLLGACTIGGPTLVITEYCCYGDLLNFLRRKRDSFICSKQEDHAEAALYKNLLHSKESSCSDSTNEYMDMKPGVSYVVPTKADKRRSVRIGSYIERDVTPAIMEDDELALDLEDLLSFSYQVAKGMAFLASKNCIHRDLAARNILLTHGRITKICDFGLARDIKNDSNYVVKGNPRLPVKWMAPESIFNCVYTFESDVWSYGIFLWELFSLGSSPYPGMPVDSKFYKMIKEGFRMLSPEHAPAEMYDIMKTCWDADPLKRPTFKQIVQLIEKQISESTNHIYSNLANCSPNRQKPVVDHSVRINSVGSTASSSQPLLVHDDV

[5] = Caco-2 cell bi-directional transport assay; format: in vitro ADME; details: human; for Papp: Caco-2
Text: (§2) As in vivo investigations are generally time consuming and expensive, it is advantageous to eliminate those compounds that are not suitable for animal experiments. One of the necessary steps is to screen the initial hits using assays testing their possible behaviors in vivo. To evaluate the drug-like properties of TBPT, a panel of in vitro assays was preformed (Table 1). The parallel artificial membrane permeability assay (PAMPA) was used to evaluate the cell permeability of the compounds. Compounds with a Pe >[…] are classified as highly permeable. […] The Caco-2 assay was used to predict the oral absorption values of the compounds in vivo. Compounds with a Caco-2 efflux ratio >2 may be subject to active efflux and should not be developed further. […] The half-life (T1/2) in human liver microsomes is used to predict the metabolism properties of compounds in vivo. […] A very long T1/2 (>24 h) increases the risk of cumulative toxicity and is not desirable. […] T1/2 in plasma indicates the stability of the drug in human blood; the high T1/2 values of these compounds indicated better stability in vivo. Plasma protein binding influences the distribution of drugs into body tissues, and compounds with high plasma protein binding (>99%) are limited in terms of the amount of free compound that are available to act on the targeted tissue.
(§3) The PAMPA and Caco-2 cell bi-directional transport assay of the derivatives were conducted as described in our previous report.[65], [66] The human liver microsome, plasma stability and plasma protein-binding assays were conducted following modified protocols reported by Cyprotex (Macclesfield, UK).[67], [68], [69], [70]

Caco-2 = Caco-2 cell bi-directional transport assay; format: in vitro ADME; details: Caco-2
Text: as §2, §3

plasma protein binding = format: in vitro ADME
Text: as §2, with “tissue. […]” for “tissue.”

[6] = target: T10, ABL1(Y253F)-phosphorylated (Homo sapiens, UniProt P00519, Y253F); assay: KINOMEscan; format: binding; details: read-out: % Ctrl
T10 construct: purchased DiscoveRx KINOMEscan

H460 = assay: Apoptosis flow cytometry (PI/Annexin V-FITC); format: cell-based, human; details: NSCLC cells (H460), 2 μM, 48 h
tubulin = target: T11, tubulin (Sus scrofa, UniProt P02550+P02554); assay: Tubulin polymerization assay (cell-free); format: biochemical; details: fluorescence, 50 min, 37 °C, read-out: IC50 of tubulin polymerization (microtubule formation)
T11 construct: purchased Cytoskeleton, Denver, CO, USA
Procedure: A fluorescence-based tubulin polymerization assay kit was used to monitor the polymerization process according to the manufacturer's instructions (Cytoskeleton, Denver, CO, USA). […] Tubulin solution (50 μl) was dispensed rapidly into each well.

T1 sequence (P35916 25-1363): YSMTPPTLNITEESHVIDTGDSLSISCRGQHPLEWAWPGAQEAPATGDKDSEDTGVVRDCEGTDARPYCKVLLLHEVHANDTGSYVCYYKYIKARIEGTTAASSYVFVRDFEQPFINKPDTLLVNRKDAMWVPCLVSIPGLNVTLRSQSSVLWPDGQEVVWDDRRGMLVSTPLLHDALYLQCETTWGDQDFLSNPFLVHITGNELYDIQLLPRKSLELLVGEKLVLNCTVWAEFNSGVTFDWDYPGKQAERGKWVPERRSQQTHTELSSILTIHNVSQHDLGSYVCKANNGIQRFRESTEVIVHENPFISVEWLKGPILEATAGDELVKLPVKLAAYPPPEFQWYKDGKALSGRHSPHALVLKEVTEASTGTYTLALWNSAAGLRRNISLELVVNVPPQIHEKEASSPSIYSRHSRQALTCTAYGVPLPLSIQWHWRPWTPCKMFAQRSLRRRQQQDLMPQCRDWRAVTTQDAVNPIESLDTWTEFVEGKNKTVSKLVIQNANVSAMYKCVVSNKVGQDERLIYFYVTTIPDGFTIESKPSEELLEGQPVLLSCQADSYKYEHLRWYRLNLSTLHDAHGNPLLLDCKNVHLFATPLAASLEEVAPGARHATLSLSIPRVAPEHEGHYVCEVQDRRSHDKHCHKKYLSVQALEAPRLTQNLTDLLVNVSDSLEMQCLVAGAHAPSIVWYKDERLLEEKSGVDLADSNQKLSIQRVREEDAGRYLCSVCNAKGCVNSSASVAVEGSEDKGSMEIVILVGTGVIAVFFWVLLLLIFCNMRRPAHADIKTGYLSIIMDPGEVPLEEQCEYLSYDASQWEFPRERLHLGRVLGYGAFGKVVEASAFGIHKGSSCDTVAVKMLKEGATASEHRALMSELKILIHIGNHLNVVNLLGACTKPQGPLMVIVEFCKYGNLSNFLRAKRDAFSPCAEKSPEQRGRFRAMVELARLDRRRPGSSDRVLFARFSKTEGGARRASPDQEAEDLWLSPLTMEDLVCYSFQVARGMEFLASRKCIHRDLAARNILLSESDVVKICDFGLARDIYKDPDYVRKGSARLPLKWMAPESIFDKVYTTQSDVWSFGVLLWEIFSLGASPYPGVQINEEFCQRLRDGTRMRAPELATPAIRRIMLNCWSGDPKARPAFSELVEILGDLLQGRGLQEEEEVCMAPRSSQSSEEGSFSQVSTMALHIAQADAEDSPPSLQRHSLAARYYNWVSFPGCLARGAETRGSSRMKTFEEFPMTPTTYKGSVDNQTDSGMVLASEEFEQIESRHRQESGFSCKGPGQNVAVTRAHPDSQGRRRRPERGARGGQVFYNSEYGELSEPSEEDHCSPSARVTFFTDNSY

Compound `Cc1ccc(C2=Nc3cccnc3S(=O)(=O)c3ccccc32)cc1` [TBPT, 6-(p-tolyl)benzo[f] pyrido[2,3-b][1,4] thiazepine 11,11-dioxide] has a remaining binding at 5 µM (FLT4; 5 μM) of 100%, a remaining binding at 10 µM (FLT4; 10 μM) of 100% and a remaining binding at 5 µM (TRKC; 5 μM) of 100%. It also gave a remaining binding at 10 µM (TRKC; 10 μM) of 96%, a remaining binding at 5 µM ([1]; 5 μM) of 80% and a remaining binding at 10 µM ([1]; 10 μM) of 100%. The remaining binding at 5 µM (MYO3B; 5 μM) was 100%, the remaining binding at 10 µM (MYO3B; 10 μM) was 100% and the remaining binding at 5 µM ([2]; 5 μM) was 60%. It also gave a remaining binding at 10 µM ([2]; 10 μM) of 89%, a remaining binding at 5 µM ([3]; 5 μM) of 76% and a remaining binding at 10 µM ([3]; 10 μM) of 91%. The remaining binding at 5 µM (MET(M1250T); 5 μM) was 100%, the remaining binding at 10 µM (MET(M1250T); 10 μM) was 77% and the “cell cycle arrest or apoptosis” value (NHFB cells) was “very little cell cycle arrest or apoptosis”. For the same compound, the “activities of caspases 8, 9 and 3/7” value (caspases 8, 9 and 3/7) was “activated caspases 8, 9 and 3/7 in a time-dependent manner”, the remaining binding at 5 µM ([4]; 5 μM) was 68% and the remaining binding at 10 µM ([4]; 10 μM) was 92%. For the same compound, the remaining binding at 5 µM (KIT(A829P); 5 μM) was 95%, the remaining binding at 10 µM (KIT(A829P); 10 μM) was 96% and the efflux ratio ([5]; Caco-2, Caco-2, read-out: Efflux ratio (B2A/A2B)) was 0.4 to 0.8. For the same compound, the Papp ([5]; read-out: Caco-2 Papp A/B) was 34.5 ± 2.06 ×10⁻⁶ cm/s, the Papp ([5]; read-out: Caco-2 Papp B/A) was 20.6 ± 7 ×10⁻⁶ cm/s and the “Efflux ratio (B2A/A2B)” value (Caco-2) was 0.59±0.17. It also gave a fraction unbound (plasma protein binding) of 0.0164, a remaining binding at 5 µM ([6]; 5 μM) of 70% and a remaining binding at 10 µM ([6]; 10 μM) of 95%. The “cells in an apoptotic/necrotic state” value (H460) was “approximately 50%” and the IC50 (tubulin) was 12.6 µM.
